In patent publication US10968215B2 (SHANGHAI HAIHE PHARMACEUTICAL CO., LTD., priority 2016, dated 2021):
Read-outs that look alike come from different tables or passages of the source.

Assays:
[1] = target: PRC2 complex (EZH2/EED/SUZ12/RbAp48/AEBP2) (Homo sapiens (Human), UniProt Q15910); assay: Activity of a compound to PRC2 complex (EZH2 wild type), ELISA; assay type: biochemical; settings: class symbols
Source text: Determination of the Activity of a Compound to PRC2 Complex (EZH2 Wild Type):
Detection Method: Enzyme-Linked Immunosorbent Assay (ELISA)
MATERIALS: The PRC2 complex (EZH2/EED/SUZ12/RbAp48/AEBP2) histone methyltransferase was purchased from BPS; the substrate Biotin H3 (21-44) me0 was produced by AnaSpec; SAM was purchased from Sigma, which is GL Biochem product; methyl donor SAM was purchased from Sigma-aldrich; H3K27me3 antibody was purchased from BPS.
Experimental method: avdin of a final concentration of 100 nM was used to coat 96-well plate at 10 μL/well, placed in a wet box and shaken overnight, and then 100 μL 3% BSA per well was added and blocked for 1 h at room temperature. PRC2 complex (EZH2/EED/SUZ12/RbAp48/AEBP2), H3 (21-44) me0 substrate, methyl donor SAM and compound were added into each well of the blocked 96-well plate. The total reaction system was 100 μL, placed in a wet box and allowed to react for 1 h on shaker at room temperature. The plate was washed with TBS-T [20 mM Tris-HCl (pH 7.2-7.4, room temperature), 150 mM NaCl, 0.1% (v/v) Tween-20] for 3 times, blocked with 3% BSA for 10 min, and anti-H3K27me3 antibody was added and incubated for 1 h in a wet box on shaker at room temperature. The plate was washed again with TBS-T for 3 times, and blocked with 3% BSA per well for 10 min. Horseradish peroxidase-labeled secondary antibody was added and reacted in a wet box at room temperature for 1 h, and finally, washed with TBS-T for 3 times. 2 mg/ml OPD color developing solution (1004/well) was added for coloring, and the reaction was stopped with 2M H2SO4 (50 μL/well). The plate was read by a plate reader at 490 nm and IC50 of the compound was calculated using SoftMax Pro 5.4.1 software.

[2] = target: PRC2 complex (EZH2 Y641F/EED/SUZ12/RbAp48/AEBP2) (Homo sapiens (Human), UniProt Q15910, Y641F); assay: Activity of a compound to PRC2 complex (EZH2 Y641F), HTRF
Chain of PRC2 complex (EZH2 Y641F/EED/SUZ12/RbAp48/AEBP2) (Q15910 whole entry Y641F): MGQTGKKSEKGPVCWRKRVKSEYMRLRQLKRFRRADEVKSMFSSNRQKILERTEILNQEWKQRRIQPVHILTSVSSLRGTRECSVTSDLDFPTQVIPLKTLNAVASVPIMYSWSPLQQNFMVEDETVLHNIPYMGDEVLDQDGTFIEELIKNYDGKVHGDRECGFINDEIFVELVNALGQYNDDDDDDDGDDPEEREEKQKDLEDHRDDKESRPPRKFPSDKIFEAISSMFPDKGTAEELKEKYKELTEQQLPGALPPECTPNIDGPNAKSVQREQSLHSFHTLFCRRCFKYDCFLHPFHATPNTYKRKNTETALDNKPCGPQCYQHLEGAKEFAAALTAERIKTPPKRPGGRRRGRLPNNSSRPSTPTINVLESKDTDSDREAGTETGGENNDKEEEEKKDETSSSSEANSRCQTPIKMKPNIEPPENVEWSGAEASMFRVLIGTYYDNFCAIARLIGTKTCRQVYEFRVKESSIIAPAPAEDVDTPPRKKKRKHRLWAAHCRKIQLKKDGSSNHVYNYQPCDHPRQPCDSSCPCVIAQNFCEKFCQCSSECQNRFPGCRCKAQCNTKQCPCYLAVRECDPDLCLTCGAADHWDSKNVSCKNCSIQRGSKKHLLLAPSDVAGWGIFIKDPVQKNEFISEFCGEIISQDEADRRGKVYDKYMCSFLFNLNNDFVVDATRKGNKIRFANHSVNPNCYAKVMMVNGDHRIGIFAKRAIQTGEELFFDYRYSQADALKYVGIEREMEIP
Chain of PRC2 complex (EZH2 Y641F/EED/SUZ12/RbAp48/AEBP2) (O75530 whole entry partner): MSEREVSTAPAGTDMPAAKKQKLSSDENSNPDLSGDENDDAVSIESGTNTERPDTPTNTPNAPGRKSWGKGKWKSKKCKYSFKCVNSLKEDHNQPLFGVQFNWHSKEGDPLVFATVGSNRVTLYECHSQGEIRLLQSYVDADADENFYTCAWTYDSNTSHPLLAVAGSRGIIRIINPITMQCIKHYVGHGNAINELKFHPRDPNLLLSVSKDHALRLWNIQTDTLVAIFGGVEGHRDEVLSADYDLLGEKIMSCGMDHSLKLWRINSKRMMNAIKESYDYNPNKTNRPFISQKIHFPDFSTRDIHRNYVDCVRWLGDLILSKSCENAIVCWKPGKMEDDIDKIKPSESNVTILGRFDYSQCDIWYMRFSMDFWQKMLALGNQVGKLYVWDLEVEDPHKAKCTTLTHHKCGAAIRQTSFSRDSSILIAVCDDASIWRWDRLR
Chain of PRC2 complex (EZH2 Y641F/EED/SUZ12/RbAp48/AEBP2) (Q15022 whole entry partner): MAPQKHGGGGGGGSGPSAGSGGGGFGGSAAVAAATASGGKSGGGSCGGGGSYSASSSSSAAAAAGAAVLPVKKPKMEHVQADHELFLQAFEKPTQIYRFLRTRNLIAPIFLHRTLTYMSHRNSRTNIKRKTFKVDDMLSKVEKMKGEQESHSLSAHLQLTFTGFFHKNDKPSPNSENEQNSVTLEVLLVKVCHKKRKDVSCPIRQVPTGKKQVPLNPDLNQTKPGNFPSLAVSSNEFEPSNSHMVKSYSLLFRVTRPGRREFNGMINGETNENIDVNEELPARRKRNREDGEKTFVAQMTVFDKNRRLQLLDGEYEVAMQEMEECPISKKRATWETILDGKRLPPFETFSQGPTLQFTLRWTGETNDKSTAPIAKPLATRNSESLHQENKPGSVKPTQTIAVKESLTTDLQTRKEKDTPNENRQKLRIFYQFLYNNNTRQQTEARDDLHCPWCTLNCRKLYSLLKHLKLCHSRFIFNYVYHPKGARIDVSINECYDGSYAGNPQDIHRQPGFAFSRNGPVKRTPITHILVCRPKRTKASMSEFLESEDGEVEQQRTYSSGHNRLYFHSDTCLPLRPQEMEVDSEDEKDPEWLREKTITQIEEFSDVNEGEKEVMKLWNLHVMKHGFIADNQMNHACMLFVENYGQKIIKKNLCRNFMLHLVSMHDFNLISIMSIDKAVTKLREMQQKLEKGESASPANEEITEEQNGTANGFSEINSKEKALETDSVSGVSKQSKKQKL
Chain of PRC2 complex (EZH2 Y641F/EED/SUZ12/RbAp48/AEBP2) (Q09028 whole entry partner): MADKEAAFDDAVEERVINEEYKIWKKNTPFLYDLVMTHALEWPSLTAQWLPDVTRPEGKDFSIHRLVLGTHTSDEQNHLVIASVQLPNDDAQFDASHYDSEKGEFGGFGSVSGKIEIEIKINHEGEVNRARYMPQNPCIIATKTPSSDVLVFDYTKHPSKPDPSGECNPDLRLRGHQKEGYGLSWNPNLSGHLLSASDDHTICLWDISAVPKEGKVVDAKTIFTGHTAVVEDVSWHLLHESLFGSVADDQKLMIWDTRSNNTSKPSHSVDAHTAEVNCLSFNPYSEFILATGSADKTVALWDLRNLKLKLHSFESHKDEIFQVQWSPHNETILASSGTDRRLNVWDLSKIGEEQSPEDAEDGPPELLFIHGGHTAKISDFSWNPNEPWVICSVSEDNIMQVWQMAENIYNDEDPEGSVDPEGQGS
Chain of PRC2 complex (EZH2 Y641F/EED/SUZ12/RbAp48/AEBP2) (Q6ZN18 whole entry partner): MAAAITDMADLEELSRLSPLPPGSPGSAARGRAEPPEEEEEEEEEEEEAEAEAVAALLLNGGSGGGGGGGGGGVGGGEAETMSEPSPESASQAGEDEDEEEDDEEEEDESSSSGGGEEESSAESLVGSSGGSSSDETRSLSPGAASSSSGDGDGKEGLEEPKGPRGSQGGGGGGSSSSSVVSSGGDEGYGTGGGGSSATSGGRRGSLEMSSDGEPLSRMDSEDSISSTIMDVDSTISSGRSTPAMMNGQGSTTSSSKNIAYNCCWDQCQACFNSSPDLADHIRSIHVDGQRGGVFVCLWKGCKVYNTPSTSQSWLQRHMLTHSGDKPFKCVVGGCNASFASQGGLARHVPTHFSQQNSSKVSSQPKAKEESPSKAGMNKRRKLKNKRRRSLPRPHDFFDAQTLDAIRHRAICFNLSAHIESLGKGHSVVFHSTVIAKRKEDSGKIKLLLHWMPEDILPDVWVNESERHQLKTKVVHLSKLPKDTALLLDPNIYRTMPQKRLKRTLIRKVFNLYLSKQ
Procedure: Determination of the Activity of a Compound to PRC2 Complex (EZH2Y641F):
Detection Method: Homogeneous Time-Resolved Fluorescence (HTRF)
Reaction was conducted in darkness at room temperature for 4 h. […] The IC50 values of the compounds were calculated using SoftMax Pro 5.4.1 software.

[3] = read-out: IC50 (EZH2_Y641F), EZH2 Y641F PRC2 complex, HTRF, class symbols

Chain of PRC2 complex (EZH2/EED/SUZ12/RbAp48/AEBP2) (Q15910 whole entry): as the sequence (Q15910 whole entry Y641F) above, with F641Y counted along it
Chain of PRC2 complex (EZH2/EED/SUZ12/RbAp48/AEBP2) (O75530 whole entry partner): as the sequence (O75530 whole entry partner) above
Chain of PRC2 complex (EZH2/EED/SUZ12/RbAp48/AEBP2) (Q15022 whole entry partner): as the sequence (Q15022 whole entry partner) above
Chain of PRC2 complex (EZH2/EED/SUZ12/RbAp48/AEBP2) (Q09028 whole entry partner): as the sequence (Q09028 whole entry partner) above
Chain of PRC2 complex (EZH2/EED/SUZ12/RbAp48/AEBP2) (Q6ZN18 whole entry partner): as the sequence (Q6ZN18 whole entry partner) above

Compound	IC50 [1]	IC50 [2, 3]	IC50 [2]
Cc1cc(C)c(CNC(=O)c2cc3c(-c4ccc(N)nc4)ccn3c([C@H](C)N3CCN(CC(F)(F)F)CC3)c2C)c(=O)[nH]1 (single isomer, unassigned) [Compound 159, (S)-1-(6-aminopyridin-3-yl)-N-((4,6-dimethyl-2-oxo-1,2-dihydropyridin-3-yl)methyl)-6-methyl-5-(1-(4-(2,2,2-trifluoroethyl)piperazin-1-yl)ethyl)indolizine-7-carboxamide or (R) 1-(6-aminopyridin-3-yl)-N-((4,6-dimethyl-2-oxo-1,2-dihydropyridin-3-yl)methyl)-6-methyl-5-(1-(4-(2,2,2-trifluoroethyl)piperazin-1-yl)ethyl)indolizine-7-carboxamide]	< 100 nM	< 100 nM	–
Cc1cc(C)c(CNC(=O)c2cc3c(-c4ccc(N)nc4)ccn3c(C(C)N3CCN(CC(F)(F)F)CC3)c2C)c(=O)[nH]1 (stereo not drawn) [Compound 158, 1-(6-aminopyridin-3-yl)-N-((4,6-dimethyl-2-oxo-1,2-dihydropyridin-3-yl)methyl)-6-methyl-5-(1-(4-(2,2,2-trifluoroethyl)piperazin-1-yl)ethyl)indolizine-7-carboxamide]	< 100 nM	–	< 100 nM
C#CCOC(C)c1c(C)c(C(=O)NCc2c(C)cc(C)[nH]c2=O)cc2cccn12 (stereo not drawn) [Example 4, N-((4,6-dimethyl-2-oxo-1,2-dihydropyridin-3-yl)methyl)-6-methyl-5-(1-(prop-2-yn-1-yloxy)ethyl)indolizine-7-carboxamide]	100 to 1000 nM	100 to 1000 nM	–
Cc1cc(C)c(CNC(=O)c2cc3cccn3c(C(C)OCc3ccc(F)cc3)c2C)c(=O)[nH]1 (stereo not drawn) [Example 10]	100 to 1000 nM	100 to 1000 nM	–
Cc1cc(C)c(CNC(=O)c2cc3cccn3c(C(C)OCc3ccccc3F)c2C)c(=O)[nH]1 (stereo not drawn) [Example 11]	100 to 1000 nM	100 to 1000 nM	–
Cc1cc(C)c(CNC(=O)c2cc3cccn3c(C(C)OCc3cccc(F)c3)c2C)c(=O)[nH]1 (stereo not drawn) [Example 12]	100 to 1000 nM	100 to 1000 nM	–
Cc1cc(C)c(CNC(=O)c2cc3cccn3c(C(C)OCc3c(F)cccc3F)c2C)c(=O)[nH]1 (stereo not drawn) [Example 13]	100 to 1000 nM	100 to 1000 nM	–
COc1cccc(COC(C)c2c(C)c(C(=O)NCc3c(C)cc(C)[nH]c3=O)cc3cccn23)c1 (stereo not drawn) [Example 14, N-((4,6-dimethyl-2-oxo-1,2-dihydropyridin-3-yl)methyl)-5-(1-((3-methoxybenzyl)oxy)ethyl)-6-methylindolizine-7-carboxamide]	100 to 1000 nM	100 to 1000 nM	–
Cc1cc(C)c(CNC(=O)c2cc3cccn3c(C(C)OCc3nccs3)c2C)c(=O)[nH]1 (stereo not drawn) [Example 18, N-((4,6-dimethyl-2-oxo-1,2-dihydropyridin-3-yl)methyl)-6-methyl-5-(1-(thiazole-2-ylmethoxy)ethyl)indolizine-7-carboxamide]	100 to 1000 nM	< 100 nM	–
Cc1cc(C)c(CNC(=O)c2cc3cccn3c(C(C)OCc3ccsc3)c2C)c(=O)[nH]1 (stereo not drawn) [Example 19, N-((4,6-dimethyl-2-oxo-1,2-dihydropyridin-3-yl)methyl)-6-methyl-5-(1-(thiophene-3-ylmethoxy)ethyl)indolizine-7-carboxamide]	100 to 1000 nM	100 to 1000 nM	–
Cc1cc(C)c(CNC(=O)c2cc3cccn3c(C(C)OCc3ccn(C)n3)c2C)c(=O)[nH]1 (stereo not drawn) [Example 20]	100 to 1000 nM	100 to 1000 nM	–
Cc1cc(C)c(CNC(=O)c2cc3cccn3c(C(C)c3ccccc3)c2C)c(=O)[nH]1 (stereo not drawn) [Example 25, N-((4,6-dimethyl-2-oxo-1,2-dihydropyridin-3-yl)methyl)-6-methyl-5-(1-phenylethyl)indolizine-7-carboxamide]	< 100 nM	100 to 1000 nM	–
Cc1cc(C)c(CNC(=O)c2cc3cccn3c(N(C)C3CCOCC3)c2C)c(=O)[nH]1 [Example 55, N-((4,6-dimethyl-2-oxo-1,2-dihydropyridin-3-yl)methyl)-6-methyl-5-(methyl(tetrahydro-2H-pyran-4-yl)amino)indolizine-7-carboxamide]	100 to 1000 nM	100 to 1000 nM	–
Cc1cc(C)c(CNC(=O)c2cc3cc(Br)cn3c(N(C)C3CCOCC3)c2C)c(=O)[nH]1 [Example 57]	< 100 nM	–	–
Cc1cc(C)c(CNC(=O)c2cc3cc(-c4cncs4)cn3c(C(C)N3CCC(N(C)C)CC3)c2C)c(=O)[nH]1 (stereo not drawn) [Example 138]	–	< 100 nM	–
Cc1cc(C)c(CNC(=O)c2cc3cc(-c4cncs4)cn3c(C(C)N3CCC(N(C)C)CC3)c2C)c(=O)[nH]1 (stereo not drawn) [Example 139]	–	–	< 100 nM
Cc1cc(C)c(CNC(=O)c2cc3cc(-c4cncs4)cn3c(C(C)N3CCN(CC(F)(F)F)CC3)c2C)c(=O)[nH]1 (stereo not drawn) [Example 140]	–	100 to 1000 nM	–
Cc1cc(C)c(CNC(=O)c2cc3cc(-c4cncs4)cn3c(C(C)N3CCN(CC(F)(F)F)CC3)c2C)c(=O)[nH]1 (stereo not drawn) [Example 141, N-((4,6-dimethyl-2-oxo-1,2-dihydropyridin-3-yl)methyl)-6-methyl-2-(thiazole-5-yl)-5-(1-(4-(2,2,2-trifluoroethyl)piperazin-1-yl)ethyl)indolizine-7-carboxamide]	–	100 to 1000 nM	–
COc1cc(C)[nH]c(=O)c1CNC(=O)c1cc2cc(-c3cncs3)cn2c(C(C)N2CCN(CC(F)(F)F)CC2)c1C (stereo not drawn) [Example 142, N-((4-methoxy-6-methyl-2-oxo-1,2-dihydropyridin-3-yl)methyl)-6-methyl-2-(thiazole-5-yl)-5-(1-(4-(2,2,2-trifluoroethyl)piperazin-1-yl)ethyl)indolizine-7-carboxamide]	–	< 100 nM	–
COC1CCN(C(C)c2c(C)c(C(=O)NCc3c(C)cc(C)[nH]c3=O)cc3cc(Br)cn23)CC1 (stereo not drawn) [Example 143, 2-Bromo-N-((4,6-dimethyl-2-oxo-1,2-dihydropyridin-3-yl)methyl)-6-methyl-5-(1-(4-methoxypiperidin-1-yl)ethyl)indolizine-7-carboxamide]	–	–	100 to 1000 nM
Cc1cc(C)c(CNC(=O)c2cc3cc(Br)cn3c(C(C)N3CCC(N4CCCC4)CC3)c2C)c(=O)[nH]1 (stereo not drawn) [Example 144, 2-bromo-N-((4,6-dimethyl-2-oxo-1,2-dihydropyridin-3-yl)methyl)-5-(1-(4-hydroxypiperidin-1-yl)ethyl)-6-indolizine-7-carboxamide]	–	100 to 1000 nM	–
Cc1cc(C)c(CNC(=O)c2cc3cc(Br)cn3c(C(C)N3CCC(N4CCCC4)CC3)c2C)c(=O)[nH]1 (stereo not drawn) [Example 145, 2-bromo-N-((4,6-dimethyl-2-oxo-1,2-dihydropyridin-3-yl)methyl)-6-methyl-5-(1-(4-(pyrrolidin-1-yl)piperidin-1-yl)ethyl)indolizine-7-carboxamide]	–	100 to 1000 nM	–
Cc1cc(C)c(CNC(=O)c2cc3cc(Br)cn3c(C(C)N3CCC(C#N)CC3)c2C)c(=O)[nH]1 (stereo not drawn) [Example 146, 2-bromo-5-(1-(4-cyanopiperidin-1-yl)ethyl)-N-((4,6-dimethyl-2-oxo-1,2-dihydropyridin-3-yl)methyl)-6-methylindolizine-7-carboxamide]	–	100 to 1000 nM	–
(S)-1-Chloro-N-((4,6-dimethyl-2-oxo-1,2-dihydropyridin-3-yl)methyl)-6-methyl-5-(1-morphinolinylethyl)pyridazin-7-carboxamide or (R)-1-chloro-N-((4,6-dimethyl-2-oxo-1,2-dihydro)pyridin-3-yl)methyl)-6-methyl-5-(1-morphinolinylethyl)pyridazin-7-carboxamide [Compound 29]	–	100 to 1000 nM	–
(S)-1-Chloro-N-((4,6-dimethyl-2-oxo-1,2-dihydropyridin-3-yl)methyl)-6-methyl-5-(1-morphinolinylethyl)pyridazin-7-carboxamide or (R)-1-chloro-N-((4,6-dimethyl-2-oxo-1,2-dihydro)pyridin-3-yl)methyl)-6-methyl-5-(1-morphinolinylethyl)pyridazin-7-carboxamide [Example 28]	–	< 100 nM	–
N-((4,6-dimethyl-2-oxo-1,2-dihydropyridin-3-yl)methyl)-2-(3-((dimethylamino)methyl)phen yl))-6-methyl-5-(1-morpholineethyl)indolizine-7-amide [Example 74]	–	< 100 nM	–
N-((4,6-dimethyl-2-oxo-1,2-dihydropyridin-3-yl)methyl)-2-(4-((dimethylamino)methyl)phen yl))-6-methyl-5-(1-morpholinoethyl)indolizine-7-carboxamide [Example 75]	–	100 to 1000 nM	–
N-((4,6-dimethyl-2-oxo-1,2-dihydropyridin-3-yl)methyl)-6-methyl-5-(1-morpholinylethyl)-2-(1-ethyl-1H-pyrazole)indolizine-7-carboxamide [Example 113]	–	< 100 nM	–
N-((4-methoxy-6-methyl-2-oxo-1,2-dihydropyridin-3-yl)methyl)-6-methyl-1-(2-methylpyridin-3-yl)-5-(1-(4-(2,2,2-trifluoroethyl)piperazin-1-yl)ethyl)indolizine-7-carboxamide [Compound 166]	–	< 100 nM	–
